# From publication PMC5290327, “SC83288 is a clinical development candidate for the treatment of severe malaria” (Nature Communications, 2017)
# Columns and labels:
# 5-HT2B (h) = target: T1, 5-HT2B (h) (Homo sapiens, UniProt P41595); assay: Radioligand binding
# T1 construct: Cerep (contract screening)
# Procedure: (§1) The study was carried out by Cerep (Celle l'Evescault, France). An in vitro pharmacological profiling panel was designed to detect potential high-risk clinical adverse drug reactions. The panel comprised of 54 targets.
# (§2) The specific ligand binding to the receptors was defined as the difference between the total binding and the non-specific binding determined in the presence of an excess of unlabelled ligand. Results were expressed as a per cent of control specific binding and as a per cent inhibition of control specific obtained in the presence of the test compounds. Results showing an inhibition (or stimulation) >50% were considered to represent significant effects of the test compounds. […] The IC50 values were determined by non-linear regression analysis of the competition curves generated with mean replicate values using Hill equation curve fitting. The inhibition constants (Ki) were calculated using the Cheng Prusoff equation.
# [1] = tested on: Ca2+ channel (L, verapamil site); assay: Radioligand binding
# Procedure: as §1, §2
# a1 (non-selective) = assay: Radioligand binding
# Procedure: as §1, §2
# a2 (non-selective) = assay: Radioligand binding
# Procedure: as §1, §2
# sst (non-selective) = assay: Radioligand binding
# Procedure: as §1, §2
# ANKK1 = target: T2, ANKK1 (Homo sapiens, UniProt Q8NFD2); assay: KINOMEscan; type: binding; conditions: read-out: Remaining enzyme activity
# T2 construct: purchased Ambit (DiscoverX) KINOMEscan; Cerep
# T2 sequence (Q8NFD2 whole entry): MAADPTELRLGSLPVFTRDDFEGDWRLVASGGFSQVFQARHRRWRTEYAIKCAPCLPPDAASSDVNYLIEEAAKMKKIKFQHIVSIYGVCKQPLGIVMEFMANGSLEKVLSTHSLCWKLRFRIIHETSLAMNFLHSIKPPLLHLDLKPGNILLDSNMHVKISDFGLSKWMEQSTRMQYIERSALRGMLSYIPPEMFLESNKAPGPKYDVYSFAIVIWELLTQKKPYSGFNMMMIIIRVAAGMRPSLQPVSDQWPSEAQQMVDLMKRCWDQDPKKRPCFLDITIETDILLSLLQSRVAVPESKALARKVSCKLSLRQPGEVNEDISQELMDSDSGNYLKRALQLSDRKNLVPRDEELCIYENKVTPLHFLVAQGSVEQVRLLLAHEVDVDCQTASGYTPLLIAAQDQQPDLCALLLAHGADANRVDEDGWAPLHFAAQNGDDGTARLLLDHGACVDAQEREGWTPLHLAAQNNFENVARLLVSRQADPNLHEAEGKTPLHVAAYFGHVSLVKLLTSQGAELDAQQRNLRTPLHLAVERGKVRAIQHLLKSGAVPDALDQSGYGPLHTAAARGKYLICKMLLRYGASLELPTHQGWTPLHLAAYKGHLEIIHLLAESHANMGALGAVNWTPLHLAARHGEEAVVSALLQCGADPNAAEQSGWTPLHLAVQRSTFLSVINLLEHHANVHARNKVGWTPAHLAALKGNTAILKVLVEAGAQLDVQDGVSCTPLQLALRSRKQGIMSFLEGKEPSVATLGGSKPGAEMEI
# Procedure: (§3) The KINOMEscan was carried out by Ambit (San Diego, USA) according to a previously established protocol. The experiment was based on a competition binding assay that quantitatively measures the ability of a compound to compete with an immobilized, active-site directed ligand. The assay is performed by combining three components: DNA-tagged kinase; immobilized ligand; and a test compound. The ability of the test compound to compete with the immobilized ligand is measured via quantitative PCR of the DNA tag.
# (§4) For most assays, kinase-tagged T7 phage strains were grown in parallel in 24-well blocks in an Escherichia coli host derived from the BL21 strain. E. coli were grown to log-phase and infected with T7 phage from a frozen stock and incubated with shaking at 32 °C until lysis (90–150 min). The lysates were centrifuged (6,000g) and filtered (0.2 μm) to remove cell debris. The remaining kinases were produced in HEK-293 cells (Sigma Aldrich, catalogue number: 85120602) and subsequently tagged with DNA for quantitative PCR detection. […] The liganded beads were blocked with excess biotin and washed with blocking buffer (SeaBlock (Pierce), 1% bovine serum albumin, 0.05% Tween 20 and 1 mM dithiothreitol) to remove unbound ligand and to reduce non-specific phage binding. […] SC81458 was prepared as 40x stock in 100% DMSO and directly diluted into the assay to a final concentration of 10 μM. All reactions were performed in polypropylene 384-well plates in a final volume of 0.04 ml. […] The kinase concentration in the eluates was measured by quantitative PCR.
# BRSK2 = target: T3, BRSK2 (Homo sapiens, UniProt Q8IWQ3); assay: KINOMEscan; type: binding; conditions: read-out: Remaining enzyme activity
# T3 construct: purchased Ambit (DiscoverX) KINOMEscan; Cerep
# Procedure: as §3, §4
# CDK2 = target: T4, CDK2 (Homo sapiens, UniProt P24941); assay: KINOMEscan; type: binding; conditions: read-out: Remaining enzyme activity
# T4 construct: purchased Ambit (DiscoverX) KINOMEscan; Cerep
# Procedure: as §3, §4
# CLK2 = target: T5, CLK2 (Homo sapiens, UniProt P49760); assay: KINOMEscan; type: binding; conditions: read-out: Remaining enzyme activity
# T5 construct: purchased Ambit (DiscoverX) KINOMEscan; Cerep
# T5 sequence (P49760 whole entry): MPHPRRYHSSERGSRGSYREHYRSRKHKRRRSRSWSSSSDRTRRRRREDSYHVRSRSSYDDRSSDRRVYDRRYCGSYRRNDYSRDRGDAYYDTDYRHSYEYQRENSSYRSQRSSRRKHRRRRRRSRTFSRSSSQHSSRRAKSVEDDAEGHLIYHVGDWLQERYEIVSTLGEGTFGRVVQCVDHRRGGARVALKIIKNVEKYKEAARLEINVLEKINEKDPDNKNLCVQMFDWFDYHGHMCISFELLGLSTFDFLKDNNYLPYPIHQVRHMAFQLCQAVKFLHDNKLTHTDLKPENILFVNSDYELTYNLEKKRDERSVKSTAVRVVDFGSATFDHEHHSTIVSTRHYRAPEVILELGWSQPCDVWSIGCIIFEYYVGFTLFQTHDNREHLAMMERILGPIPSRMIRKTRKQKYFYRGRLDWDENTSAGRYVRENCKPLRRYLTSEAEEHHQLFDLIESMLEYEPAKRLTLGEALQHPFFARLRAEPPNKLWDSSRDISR
# Procedure: as §3, §4
# EGFR(L747-T751del, Sins) = target: T6, EGFR(L747-T751del, Sins) (Homo sapiens, UniProt P00533, DEL747-750/T751S); assay: KINOMEscan; type: binding; conditions: read-out: Remaining enzyme activity
# T6 construct: purchased Ambit (DiscoverX) KINOMEscan; Cerep
# Procedure: as §3, §4
# EPHA2 = target: T7, EPHA2 (Homo sapiens, UniProt P29317); assay: KINOMEscan; type: binding; conditions: read-out: Remaining enzyme activity
# T7 construct: purchased Ambit (DiscoverX) KINOMEscan; Cerep
# Procedure: as §3, §4
# EPHA5 = target: T8, EPHA5 (Homo sapiens, UniProt P54756); assay: KINOMEscan; type: binding; conditions: read-out: Remaining enzyme activity
# T8 construct: purchased Ambit (DiscoverX) KINOMEscan; Cerep
# T8 sequence (P54756 25-1037): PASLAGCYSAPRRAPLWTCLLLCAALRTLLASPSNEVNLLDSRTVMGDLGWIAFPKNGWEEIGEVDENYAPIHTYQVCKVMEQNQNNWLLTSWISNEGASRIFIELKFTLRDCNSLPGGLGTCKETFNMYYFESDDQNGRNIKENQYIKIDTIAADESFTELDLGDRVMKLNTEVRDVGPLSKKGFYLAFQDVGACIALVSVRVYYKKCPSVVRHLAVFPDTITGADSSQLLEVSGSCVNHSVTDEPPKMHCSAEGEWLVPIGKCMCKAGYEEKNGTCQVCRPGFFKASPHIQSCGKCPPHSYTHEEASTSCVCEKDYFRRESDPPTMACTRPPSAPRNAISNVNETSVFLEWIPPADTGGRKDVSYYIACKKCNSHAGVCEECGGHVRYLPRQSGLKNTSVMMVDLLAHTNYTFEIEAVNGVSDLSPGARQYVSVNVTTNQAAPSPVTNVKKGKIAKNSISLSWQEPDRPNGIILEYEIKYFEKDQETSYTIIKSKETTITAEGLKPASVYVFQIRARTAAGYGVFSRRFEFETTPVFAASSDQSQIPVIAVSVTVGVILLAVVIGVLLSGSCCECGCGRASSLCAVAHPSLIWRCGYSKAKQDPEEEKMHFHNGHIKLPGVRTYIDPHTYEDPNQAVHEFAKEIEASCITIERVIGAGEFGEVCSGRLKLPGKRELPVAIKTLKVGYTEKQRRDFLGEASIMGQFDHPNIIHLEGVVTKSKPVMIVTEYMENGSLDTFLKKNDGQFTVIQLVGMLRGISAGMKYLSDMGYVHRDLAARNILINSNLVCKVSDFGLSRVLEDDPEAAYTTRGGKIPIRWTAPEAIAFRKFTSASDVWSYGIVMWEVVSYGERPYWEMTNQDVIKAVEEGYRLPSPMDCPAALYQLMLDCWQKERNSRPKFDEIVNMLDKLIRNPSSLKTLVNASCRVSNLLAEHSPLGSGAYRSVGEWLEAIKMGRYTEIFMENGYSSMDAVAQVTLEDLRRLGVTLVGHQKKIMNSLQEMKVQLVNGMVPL
# Procedure: as §3, §4
# EPHB3 = target: T9, EPHB3 (Homo sapiens, UniProt P54753); assay: KINOMEscan; type: binding; conditions: read-out: Remaining enzyme activity
# T9 construct: purchased Ambit (DiscoverX) KINOMEscan; Cerep
# Procedure: as §3, §4
# ERK1 = target: T10, ERK1 (Homo sapiens, UniProt P27361); assay: KINOMEscan; type: binding; conditions: read-out: Remaining enzyme activity
# T10 construct: purchased Ambit (DiscoverX) KINOMEscan; Cerep
# Procedure: as §3, §4
# ERK8 = target: T11, ERK8 (Homo sapiens, UniProt Q8TD08); assay: KINOMEscan; type: binding; conditions: read-out: Remaining enzyme activity
# T11 construct: purchased Ambit (DiscoverX) KINOMEscan; Cerep
# Procedure: as §3, §4
# IRAK3 = target: T12, IRAK3 (Homo sapiens, UniProt Q9Y616); assay: KINOMEscan; type: binding; conditions: read-out: Remaining enzyme activity
# T12 construct: purchased Ambit (DiscoverX) KINOMEscan; Cerep
# T12 sequence (Q9Y616 whole entry): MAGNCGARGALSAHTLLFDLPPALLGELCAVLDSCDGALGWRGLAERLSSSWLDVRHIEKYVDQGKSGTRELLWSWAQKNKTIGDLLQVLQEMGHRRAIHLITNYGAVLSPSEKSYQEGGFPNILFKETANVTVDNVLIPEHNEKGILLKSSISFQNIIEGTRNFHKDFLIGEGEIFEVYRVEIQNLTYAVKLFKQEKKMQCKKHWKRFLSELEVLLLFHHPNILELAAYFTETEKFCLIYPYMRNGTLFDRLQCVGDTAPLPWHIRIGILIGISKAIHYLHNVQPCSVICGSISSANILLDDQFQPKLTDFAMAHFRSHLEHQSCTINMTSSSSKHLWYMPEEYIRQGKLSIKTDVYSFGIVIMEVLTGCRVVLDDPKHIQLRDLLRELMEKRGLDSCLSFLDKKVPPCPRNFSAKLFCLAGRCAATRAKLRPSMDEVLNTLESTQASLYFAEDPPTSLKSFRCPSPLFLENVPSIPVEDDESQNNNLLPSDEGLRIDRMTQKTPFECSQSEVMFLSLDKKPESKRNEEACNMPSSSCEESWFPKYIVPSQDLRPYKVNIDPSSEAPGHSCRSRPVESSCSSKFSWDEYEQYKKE
# Procedure: as §3, §4
# MARK4 = target: T13, MARK4 (Homo sapiens, UniProt Q96L34); assay: KINOMEscan; type: binding; conditions: read-out: Remaining enzyme activity
# T13 construct: purchased Ambit (DiscoverX) KINOMEscan; Cerep
# Procedure: as §3, §4
# MAST1 = target: T14, MAST1 (Homo sapiens, UniProt Q9Y2H9); assay: KINOMEscan; type: binding; conditions: read-out: Remaining enzyme activity
# T14 construct: purchased Ambit (DiscoverX) KINOMEscan; Cerep
# Procedure: as §3, §4
# MEK3 = target: T15, MEK3 (Homo sapiens, UniProt P46734); assay: KINOMEscan; type: binding; conditions: read-out: Remaining enzyme activity
# T15 construct: purchased Ambit (DiscoverX) KINOMEscan; Cerep
# T15 sequence (P46734 whole entry): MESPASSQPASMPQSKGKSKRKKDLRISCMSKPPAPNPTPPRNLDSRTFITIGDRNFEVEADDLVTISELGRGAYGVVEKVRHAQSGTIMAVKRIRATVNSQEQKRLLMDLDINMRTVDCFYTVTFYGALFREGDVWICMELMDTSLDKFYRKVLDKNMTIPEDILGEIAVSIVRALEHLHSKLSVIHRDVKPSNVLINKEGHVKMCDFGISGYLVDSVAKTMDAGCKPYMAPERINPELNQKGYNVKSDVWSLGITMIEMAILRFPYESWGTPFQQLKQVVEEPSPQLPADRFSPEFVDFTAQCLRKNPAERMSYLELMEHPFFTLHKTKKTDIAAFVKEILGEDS
# Procedure: as §3, §4
# MINK = target: T16, MINK (Homo sapiens, UniProt Q8N4C8); assay: KINOMEscan; type: binding; conditions: read-out: Remaining enzyme activity
# T16 construct: purchased Ambit (DiscoverX) KINOMEscan; Cerep
# Procedure: as §3, §4
# NIM1 = target: T17, NIM1 (Homo sapiens, UniProt Q8IY84); assay: KINOMEscan; type: binding; conditions: read-out: Remaining enzyme activity
# T17 construct: purchased Ambit (DiscoverX) KINOMEscan; Cerep
# Procedure: as §3, §4
# PIM3 = target: T18, PIM3 (Homo sapiens, UniProt Q86V86); assay: KINOMEscan; type: binding; conditions: read-out: Remaining enzyme activity
# T18 construct: purchased Ambit (DiscoverX) KINOMEscan; Cerep
# Procedure: as §3, §4
# RET(M918T) = target: T19, RET(M918T) (Homo sapiens, UniProt P07949, M918T); assay: KINOMEscan; type: binding; conditions: read-out: Remaining enzyme activity
# T19 construct: purchased Ambit (DiscoverX) KINOMEscan; Cerep
# T19 sequence (P07949 29-1114 M918T): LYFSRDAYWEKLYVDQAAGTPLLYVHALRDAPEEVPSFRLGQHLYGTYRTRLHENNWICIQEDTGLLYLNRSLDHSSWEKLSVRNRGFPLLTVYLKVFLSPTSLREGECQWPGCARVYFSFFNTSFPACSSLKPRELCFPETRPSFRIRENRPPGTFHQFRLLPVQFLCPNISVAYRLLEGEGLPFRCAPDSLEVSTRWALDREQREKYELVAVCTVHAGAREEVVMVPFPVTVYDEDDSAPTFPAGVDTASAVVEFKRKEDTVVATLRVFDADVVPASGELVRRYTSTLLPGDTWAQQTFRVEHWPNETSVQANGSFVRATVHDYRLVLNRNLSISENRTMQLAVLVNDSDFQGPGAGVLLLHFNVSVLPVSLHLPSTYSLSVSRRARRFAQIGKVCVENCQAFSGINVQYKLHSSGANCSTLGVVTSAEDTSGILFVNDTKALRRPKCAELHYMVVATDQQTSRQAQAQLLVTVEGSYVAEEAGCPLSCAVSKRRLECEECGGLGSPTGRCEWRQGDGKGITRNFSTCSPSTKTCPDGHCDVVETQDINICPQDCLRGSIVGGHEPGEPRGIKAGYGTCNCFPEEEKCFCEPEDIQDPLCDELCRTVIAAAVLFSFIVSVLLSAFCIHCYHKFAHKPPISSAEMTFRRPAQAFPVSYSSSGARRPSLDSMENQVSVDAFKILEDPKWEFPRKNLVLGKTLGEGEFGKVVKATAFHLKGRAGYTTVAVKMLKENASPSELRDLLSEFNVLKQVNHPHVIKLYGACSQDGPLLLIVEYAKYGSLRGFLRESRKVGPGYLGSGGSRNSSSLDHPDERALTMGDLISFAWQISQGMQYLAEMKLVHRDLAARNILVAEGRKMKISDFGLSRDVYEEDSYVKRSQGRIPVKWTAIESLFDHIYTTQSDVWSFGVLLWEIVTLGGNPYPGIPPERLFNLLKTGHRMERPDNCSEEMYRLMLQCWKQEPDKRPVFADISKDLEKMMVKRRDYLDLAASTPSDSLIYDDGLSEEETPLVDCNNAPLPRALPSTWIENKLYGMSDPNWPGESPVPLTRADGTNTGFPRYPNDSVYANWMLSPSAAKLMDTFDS
# Procedure: as §3, §4
# ROCK1 = target: T20, ROCK1 (Homo sapiens, UniProt Q13464); assay: KINOMEscan; type: binding; conditions: read-out: Remaining enzyme activity
# T20 construct: purchased Ambit (DiscoverX) KINOMEscan; Cerep
# Procedure: as §3, §4
# [2] = target: T21, RPS6KA5(Kin.Dom.1-N-term) (Homo sapiens, UniProt O75582); assay: KINOMEscan; type: binding; conditions: read-out: Remaining enzyme activity
# T21 construct: RPS6KA5(Kin.Dom.1-N-term); purchased Ambit (DiscoverX) KINOMEscan; Cerep
# Procedure: as §3, §4
# SIK = target: T22, SIK (Homo sapiens, UniProt P57059); assay: KINOMEscan; type: binding; conditions: read-out: Remaining enzyme activity
# T22 construct: purchased Ambit (DiscoverX) KINOMEscan; Cerep
# Procedure: as §3, §4
# TAO1 = target: T23, TAO1 (Homo sapiens, UniProt Q9UL54); assay: KINOMEscan; type: binding; conditions: read-out: Remaining enzyme activity
# T23 construct: purchased Ambit (DiscoverX) KINOMEscan; Cerep
# Procedure: as §3, §4
# TIE1 = target: T24, TIE1 (Homo sapiens, UniProt P35590); assay: KINOMEscan; type: binding; conditions: read-out: Remaining enzyme activity
# T24 construct: purchased Ambit (DiscoverX) KINOMEscan; Cerep
# Procedure: as §3, §4
# TNK2 = target: T25, TNK2 (Homo sapiens, UniProt Q07912); assay: KINOMEscan; type: binding; conditions: read-out: Remaining enzyme activity
# T25 construct: purchased Ambit (DiscoverX) KINOMEscan; Cerep
# Procedure: as §3, §4
# ZAK = target: T26, ZAK (Homo sapiens, UniProt Q9NYL2); assay: KINOMEscan; type: binding; conditions: read-out: Remaining enzyme activity
# T26 construct: purchased Ambit (DiscoverX) KINOMEscan; Cerep
# Procedure: as §3, §4
# T1 sequence (P41595 whole entry): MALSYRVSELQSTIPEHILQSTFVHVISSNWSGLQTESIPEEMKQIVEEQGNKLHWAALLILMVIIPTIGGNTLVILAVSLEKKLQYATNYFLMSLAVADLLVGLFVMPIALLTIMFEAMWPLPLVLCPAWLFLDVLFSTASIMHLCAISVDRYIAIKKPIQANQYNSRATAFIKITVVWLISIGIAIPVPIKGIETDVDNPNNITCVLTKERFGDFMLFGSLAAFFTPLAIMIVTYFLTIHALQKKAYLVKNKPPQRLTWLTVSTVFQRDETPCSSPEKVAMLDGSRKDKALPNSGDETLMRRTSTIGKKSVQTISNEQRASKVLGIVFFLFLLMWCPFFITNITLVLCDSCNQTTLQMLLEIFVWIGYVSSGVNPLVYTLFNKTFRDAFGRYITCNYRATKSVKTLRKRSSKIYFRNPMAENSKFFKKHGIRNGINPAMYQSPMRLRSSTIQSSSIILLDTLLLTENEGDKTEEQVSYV
smiles,measurement,setting,value
"COC(=O)N1CCN(C(=N)c2cccc(NC(=O)Nc3ccc(S(=O)(=O)NCc4ccc(S(N)(=O)=O)cc4)cc3)c2)CC1 [SC83288, methyl 4-(imino(3-(3-(4-(N-(4-sulfamoylbenzyl)sulfamoyl)phenyl)ureido)phenyl)methyl) piperazine-1-carboxylate]",Inhibition of control specific binding,5-HT2B (h),17%
same,Inhibition of control specific binding,[1],14%
same,Inhibition of control specific binding,a1 (non-selective),9%
same,Inhibition of control specific binding,a2 (non-selective),14%
same,Inhibition of control specific binding,sst (non-selective),4%
"CCCCN1CCN(C(=N)c2cccc(NC(=O)Nc3ccc(S(=O)(=O)NCc4ccc(S(N)(=O)=O)cc4)cc3)c2)CC1 [SC81458, 4-(3-(3-((4-butylpiperazin-1-yl)(imino)methyl)phenyl)ureido)-N-(4-sulfamoylbenzyl) benzenesulfonamide]",Inhibition of control specific binding,5-HT2B (h),37%
same,Inhibition of control specific binding,[1],17%
same,Inhibition of control specific binding,a1 (non-selective),21%
same,Inhibition of control specific binding,a2 (non-selective),21%
same,Inhibition of control specific binding,sst (non-selective),-2%
same,remaining binding at 10 µM,ANKK1,99%
same,remaining binding at 10 µM,BRSK2,100%
same,remaining binding at 10 µM,CDK2,100%
same,remaining binding at 10 µM,CLK2,100%
same,remaining binding at 10 µM,"EGFR(L747-T751del, Sins)",69%
same,remaining binding at 10 µM,EPHA2,99%
same,remaining binding at 10 µM,EPHA5,100%
same,remaining binding at 10 µM,EPHB3,98%
same,remaining binding at 10 µM,ERK1,99%
same,remaining binding at 10 µM,ERK8,100%
same,remaining binding at 10 µM,IRAK3,69%
same,remaining binding at 10 µM,MARK4,100%
same,remaining binding at 10 µM,MAST1,46%
same,remaining binding at 10 µM,MEK3,100%
same,remaining binding at 10 µM,MINK,95%
same,remaining binding at 10 µM,NIM1,100%
same,remaining binding at 10 µM,PIM3,100%
same,remaining binding at 10 µM,RET(M918T),100%
same,remaining binding at 10 µM,ROCK1,100%
same,remaining binding at 10 µM,[2],96%
same,remaining binding at 10 µM,SIK,97%
same,remaining binding at 10 µM,TAO1,100%
same,remaining binding at 10 µM,TIE1,99%
same,remaining binding at 10 µM,TNK2,94%
same,remaining binding at 10 µM,ZAK,100%
